The values that follow come from US8518952B2, “6 substituted 2-heterocyclylamino pyrazine compounds as CHK-1 inhibitors” (Pfizer Inc., priority 2008, dated 2013).

One may read the EC50 as the concentration that produces a half-maximal response. Broadly, the Ki is the equilibrium dissociation constant of an inhibitor or competing ligand from its target.

SMILES strings stand for the structures. Like-named read-outs stand apart in the source and are kept apart here.

One assay deals with HeLa cells. In words: Histone H3 (Ser10) phosphorylation ELISA, abrogation of camptothecin-induced G2 arrest (CHK-1 cellular assay). Format: cell-based. The note with it: HeLa cells, camptothecin 8 hrs, then compound with nocodozole 16 hours, read-out: EC50. The method in brief:
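HeLa cells, or MiaPaCa-2 where marked, received camptothecin for 8 h, then compound with nocodazole for 16 h. Ser10-phosphorylated histone H3 in lysates was measured by ELISA with a biotinylated antibody, streptavidin-HRP and TMB. EC50 came from four-parameter sigmoid fits.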

Another assay has as its target T1, CHK1 (kinase domain) (Homo sapiens, UniProt O14757).
T1 construct: a solution containing 1 nM of CHK1 (kinase domain)
T1 sequence (O14757 9-265 limits assumed): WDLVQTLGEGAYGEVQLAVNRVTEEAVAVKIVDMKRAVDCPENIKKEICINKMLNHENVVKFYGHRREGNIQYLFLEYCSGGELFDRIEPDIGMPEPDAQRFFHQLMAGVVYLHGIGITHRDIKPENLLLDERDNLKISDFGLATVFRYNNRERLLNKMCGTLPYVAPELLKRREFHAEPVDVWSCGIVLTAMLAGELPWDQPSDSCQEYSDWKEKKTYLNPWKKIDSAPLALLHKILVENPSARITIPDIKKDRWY
In words: CHK1 Ki determination, spectrophotometric coupled (pyruvate kinase/lactate dehydrogenase) assay. The conditions noted are these: CHK-1 kinase domain; for Ki: 150 uM ATP, 125 uM Syntide 2. Format: biochemical. The gist of the method:
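The CHK1 kinase domain was pre-incubated with compound for 15 min, and the reaction was started with 125 uM Syntide 2 and 150 uM ATP. ADP formation was coupled through pyruvate kinase/lactate dehydrogenase to NADH oxidation, read as the A340 decrease. Kiapp was fitted with a tight-binding equation that accounts for enzyme concentration and ATP Km; some entries are % inhibition.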

On to `Fc1ccc2ncc(-c3cncc(N[C@H]4CNC[C@@H]4F)n3)n2c1` [Example 92, 6-(6-fluoroimidazo[1,2-a]pyridin-3-yl)-N-[(3S,4S)-4-fluoropyrrolidin-3-yl]pyrazin-2-amine], for which the EC50 with HeLa cells (Homo sapiens, HeLa) was no less than 10000 nM. The compound also displayed a Ki at CHK1 (kinase domain) of 87.5 nM.
As to `C[C@H]1CC[C@@H](Nc2cncc(-c3cnc4ccc(F)cn34)n2)CN1` [Example 93, 6-(6-fluoroimidazo[1,2-a]pyridin-3-yl)-N-[(3R,6S)-6-methylpiperidin-3-yl]pyrazin-2-amine], in the assay on HeLa cells (Homo sapiens, HeLa), the concentration giving a half-maximal response (EC50) was determined as 3330 nM. The compound further registered an inhibitory constant (Ki) on CHK1 (kinase domain) of 89 nM.
As for `C[C@H]1NCCC[C@H]1Nc1cncc(-c2cnc3ccc(F)cn23)n1` [Example 94, 6-(6-fluoroimidazo[1,2-a]pyridin-3-yl)-N-[(2R,3R)-2-methylpiperidin-3-yl]pyrazin-2-amine], the EC50 in the assay with HeLa cells was determined as 370 nM. Also, the inhibition constant Ki at CHK1 (kinase domain) turned out to be 20.6 nM.
Take `Cc1cn2c(-c3cncc(N[C@@H]4CCCN[C@@H]4C)n3)cnc2s1` [Example 96, 6-(2-methylimidazo[2,1-b][1,3]thiazol-5-yl)-N-[(2R,3R)-2-methylpiperidin-3-yl]pyrazin-2-amine]: in the assay on HeLa cells (Homo sapiens, HeLa), the EC50 amounted to 24.3 nM. Besides, the inhibitory constant (Ki) at CHK1 (kinase domain) stood at 2.7 nM.
Regarding `Cc1cn2c(-c3cncc(N[C@@H]4CCCN[C@H]4C)n3)cnc2s1` [Example 97, 6-(2-methylimidazo[2,1-b][1,3]thiazol-5-yl)-N-[(2S,3R)-2-methylpiperidin-3-yl]pyrazin-2-amine], the concentration for a half-maximal effect (EC50) in the assay on HeLa cells was found to be 151 nM. At CHK1 (kinase domain), this compound had an inhibition constant Ki of 8.62 nM.
With `CC1(Nc2cncc(-c3cnc4n3CCCC4)n2)CCNC1` (stereo not drawn) [Example 98, N-(3-methylpyrrolidin-3-yl)-6-(5,6,7,8-tetrahydroimidazo[1,2-a]pyridin-3-yl)pyrazin-2-amine], the half-maximal effective concentration (EC50) in the assay with HeLa cells (Homo sapiens, HeLa) was no less than 10000 nM. Affinity at CHK1 (kinase domain) was put at a Ki of 1000 nM.
In the case of `CC1(Nc2cncc(-c3cnc4ccccn34)n2)CCNC1` (stereo not drawn) [Example 99, 6-imidazo[1,2-a]pyridin-3-yl-N-(3-methylpyrrolidin-3-yl)pyrazin-2-amine], in the assay on HeLa cells (Homo sapiens, HeLa), the concentration for a half-maximal effect (EC50) is no less than 10000 nM. The affinity on CHK1 (kinase domain), expressed as Ki, was 28.4 nM.
For the compound `FC(F)[C@@H]1C[C@@H](Nc2cncc(-c3cnn4cc(Cl)ccc34)n2)CN1` [Example 100, 6-(6-chloropyrazolo[1,5-a]pyridin-3-yl)-N-[(3R,5S)-5-(difluoromethyl)pyrrolidin-3-yl]pyrazin-2-amine], in the assay with HeLa cells (Homo sapiens, HeLa), the concentration for a half-maximal effect (EC50) is 3530 nM. The same compound showed an inhibition constant Ki on CHK1 (kinase domain) of 14.6 nM.
Take `C[C@@H]1NCCC[C@H]1Nc1cncc(-c2cnc3ccccn23)n1` [Example 101, 6-imidazo[1,2-a]pyridin-3-yl-N-[(2S,3R)-2-methylpiperidin-3-yl]pyrazin-2-amine]: the EC50 in the assay with HeLa cells (Homo sapiens, HeLa) was no less than 10000 nM. This compound also had an inhibition constant Ki at CHK1 (kinase domain) of 55.4 nM.
For `C[C@H]1NCCC[C@H]1Nc1cncc(-c2cnc3cc(Cl)ccn23)n1` [Example 102, 6-(7-chloroimidazo[1,2-a]pyridin-3-yl)-N-[(2R,3R)-2-methylpiperidin-3-yl]pyrazin-2-amine] the same measures were no less than 10000 nM and 3.1 nM.
Consider `CCc1cn2c(-c3cncc(N[C@@H]4CC[C@H](C)NC4)n3)cnc2s1` [Example 103, 6-(2-ethylimidazo[2,1-b][1,3]thiazol-5-yl)-N-[(3R,6S)-6-methylpiperidin-3-yl]pyrazin-2-amine], for which the EC50 in the assay with HeLa cells (Homo sapiens, HeLa) came out at 69.6 nM. Further, the Ki on CHK1 (kinase domain) came out at 26.5 nM.
Regarding `C[C@@H]1NCCC[C@H]1Nc1cncc(-c2cnc3cc(Cl)ccn23)n1` [Example 104, 6-(7-chloroimidazo[1,2-a]pyridin-3-yl)-N-[(2S,3R)-2-methylpiperidin-3-yl]pyrazin-2-amine], the EC50 with HeLa cells (Homo sapiens, HeLa) was no less than 10000 nM. The inhibition constant (Ki) on CHK1 (kinase domain) came to 36.4 nM.
For `CCc1cn2c(-c3cncc(N[C@@H]4CC[C@@H](C)NC4)n3)cnc2s1` [Example 106, 6-(2-ethylimidazo[2,1-b][1,3]thiazol-5-yl)-N-[(3R,6R)-6-methylpiperidin-3-yl]pyrazin-2-amine], the concentration giving a half-maximal response (EC50) in the assay on HeLa cells (Homo sapiens, HeLa) worked out at 271 nM. The same compound yielded a Ki at CHK1 (kinase domain) of 21.8 nM.
Consider `CCc1cn2c(-c3cncc(N[C@@H]4CCCNC4)n3)cnc2s1` [Example 107, 6-(2-ethylimidazo[2,1-b][1,3]thiazol-5-yl)-N-[(3R)-piperidin-3-yl]pyrazin-2-amine], for which the concentration giving a half-maximal response (EC50) in the assay on HeLa cells (Homo sapiens, HeLa) stood at 31.6 nM. On CHK1 (kinase domain), this compound gave an inhibitory constant (Ki) of 2.85 nM.
As for `CCc1cn2c(-c3cncc(N[C@@H]4CCCN[C@@H]4C)n3)cnc2s1` [Example 108, 6-(2-ethylimidazo[2,1-b][1,3]thiazol-5-yl)-N-[(2R,3R)-2-methylpiperidin-3-yl]pyrazin-2-amine], the EC50 with HeLa cells worked out at 47 nM. Also, affinity on CHK1 (kinase domain) was put at a Ki of 10.2 nM.
Turning to `CCc1cn2c(-c3cncc(N[C@@H]4CCCN[C@H]4C)n3)cnc2s1` [Example 109, 6-(2-ethylimidazo[2,1-b][1,3]thiazol-5-yl)-N-[(2S,3R)-2-methylpiperidin-3-yl]pyrazin-2-amine], the half-maximal effective concentration (EC50) with HeLa cells worked out at 190 nM. Moreover, the affinity at CHK1 (kinase domain) corresponds to a Ki of 28.4 nM.
As to `CC(C)c1cn2c(-c3cncc(N[C@@H]4CCCN[C@@H]4C)n3)cnc2s1` [Example 111, 6-(2-isopropylimidazo[2,1-b][1,3]thiazol-5-yl)-N-[(2R,3R)-2-methylpiperidin-3-yl]pyrazin-2-amine], the EC50 in the assay with HeLa cells was found to be 22.4 nM. Besides, the Ki at CHK1 (kinase domain) was found to be 3.63 nM.
With `CC(C)c1cn2c(-c3cncc(N[C@@H]4CCCN[C@H]4C)n3)cnc2s1` [Example 112, 6-(2-isopropylimidazo[2,1-b][1,3]thiazol-5-yl)-N-[(2S,3R)-2-methylpiperidin-3-yl]pyrazin-2-amine], the EC50 in the assay on HeLa cells (Homo sapiens, HeLa) is 1110 nM. The Ki at CHK1 (kinase domain) turned out to be 12.7 nM.
Consider `Clc1ccc2c(-c3cncc(N[C@@H]4CCNC4)n3)cnn2c1` [Example 113, 6-(6-chloropyrazolo[1,5-a]pyridin-3-yl)-N-[(3R)-pyrrolidin-3-yl]pyrazin-2-amine], for which, in the assay with HeLa cells (Homo sapiens, HeLa), the EC50 worked out at 103 nM. Further, the “percent inhibition (where no Ki data is available)” value at CHK1 (kinase domain) (inhibitor concentration not given) is 95.5%^.
Regarding `CC(C)c1cn2c(-c3cncc(N[C@@H]4CC[C@H](C)NC4)n3)cnc2s1` [Example 114, 6-(2-isopropylimidazo[2,1-b][1,3]thiazol-5-yl)-N-[(3R,6S)-6-methylpiperidin-3-yl]pyrazin-2-amine], the EC50 with HeLa cells (Homo sapiens, HeLa) worked out at 230 nM. In addition, the Ki on CHK1 (kinase domain) is 12.3 nM.
For `c1ccn2ncc(-c3cncc(N[C@@H]4CCNC4)n3)c2c1` [Example 115, 6-pyrazolo[1,5-a]pyridin-3-yl-N-[(3R)-pyrrolidin-3-yl]pyrazin-2-amine], the EC50 in the assay on HeLa cells (Homo sapiens, HeLa) is 169 nM. Moreover, at CHK1 (kinase domain), affinity was put at a Ki of 3.3 nM.
On to `C[C@@H]1CNC[C@@H]1Nc1cncc(-c2cnn3cc(Cl)ccc23)n1` [Example 116, 6-(6-chloropyrazolo[1,5-a]pyridin-3-yl)-N-[(3R,4R)-4-methylpyrrolidin-3-yl]pyrazin-2-amine], for which the EC50 with HeLa cells (Homo sapiens, HeLa) is 20.3 nM. Further, the Ki on CHK1 (kinase domain) was determined as 1.97 nM.
`Clc1ccc2c(-c3cncc(N[C@@H]4CCCNC4)n3)cnn2c1` [Example 117, 6-(6-chloropyrazolo[1,5-a]pyridin-3-yl)-N-[(3R)-piperidin-3-yl]pyrazin-2-amine]: the EC50 with HeLa cells (Homo sapiens, HeLa) turned out to be 32.9 nM. The compound also yielded an inhibitory constant (Ki) at CHK1 (kinase domain) of 0.802 nM.
On to `CC(Oc1ccn2c(-c3cncc(N[C@@H]4CCCNC4)n3)cnc2c1)C(F)(F)F` (stereo partly drawn) [Example 118, N-[(3R)-piperidin-3-yl]-6-[7-(2,2,2-trifluoro-1-methylethoxy)imidazo[1,2-a]pyridin-3-yl]pyrazin-2-amine], for which the half-maximal effective concentration (EC50) with HeLa cells (Homo sapiens, HeLa) was 1110 nM. Moreover, the Ki at CHK1 (kinase domain) came to 5.27 nM.
